Laboratory results as given in US6706740B2, “Fungicidal heterocyclic aromatic amides and their compositions, methods of use and preparation” (Dow AgroSciences LLC, priority 1999, dated 2004).

Tests used:
Assay type in all cases: cell-based
[1] = tested on: Phytophthora infestans (PHYTIN); experiment: microbe, parasite or virus in culture; conditions: Phytophthora infestans, read-out: PHYTIN in vitro Growth Inhibition
[2] = tested on: Rhizoctonia solani (RHIZSO); experiment: microbe, parasite or virus in culture; conditions: Rhizoctonia solani, read-out: RHIZSO in vitro Growth Inhibition
[3] = tested on: Magnaporthe grisea (Pyricularia oryzae—PYRIOR); experiment: microbe, parasite or virus in culture; conditions: Pyricularia oryzae, read-out: PYRIOR in vitro Growth Inhibition
[4] = tested on: Mycosphaerella graminicola (Septoria tritici—SEPTTR); experiment: In vitro fungal growth inhibition, Mycosphaerella graminicola (SEPTTR); conditions: Zymoseptoria tritici; 25 ppm in growth medium; read-out: SEPTTR in vitro Growth Inhibition
[5] = tested on: Stagonospora nodorum (Leptosphaeria nodorum—LEPTNO); experiment: In vitro fungal growth inhibition, Stagonospora nodorum (LEPTNO); conditions: Leptosphaeria; 25 ppm in growth medium; read-out: LEPTNO in vitro Growth Inhibition
[6] = tested on: Ustilago maydis (USTIMA); experiment: microbe, parasite or virus in culture; conditions: Mycosarcoma maydis, read-out: USTIMA in vitro Growth Inhibition

SMILES	inhibition at 25 ppm [1] [%]	inhibition at 25 ppm [2] [%]	inhibition at 25 ppm [3] [%]	inhibition at 25 ppm [4] [%]	inhibition at 25 ppm [5] [%]	inhibition at 25 ppm [6] [%]
COc1ccnc(C(=O)N[C@H]2COC(=O)[C@H](Cc3ccccc3)[C@@H](OC(=O)C(C)C)[C@H](C)OC2=O)c1OC(=O)Cc1cccs1 [Compound 675]	< 80	< 80	> 80	< 80	> 80	< 80
COc1ccnc(C(=O)N[C@H]2COC(=O)[C@H](Cc3ccccc3)[C@@H](OC(=O)C(C)C)[C@H](C)OC2=O)c1OC(=O)c1cccc(C(F)(F)F)c1 [Compound 640]	< 80	< 80	< 80	< 80	> 80	< 80
COc1ccnc(C(=O)N[C@H]2COC(=O)[C@H](Cc3ccccc3)[C@@H](OC(=O)C(C)C)[C@H](C)OC2=O)c1OC(=O)c1cccc(C)c1C [Compound 632]	< 80	< 80	< 80	< 80	> 80	< 80
COc1ccnc(C(=O)N[C@H]2COC(=O)[C@H](Cc3ccccc3)[C@@H](OC(=O)C(C)C)[C@H](C)OC2=O)c1OC(=O)c1ccccc1Br [Compound 647]	< 80	< 80	< 80	< 80	> 80	< 80
COc1ccnc(C(=O)N[C@H]2COC(=O)[C@H](Cc3ccccc3)[C@@H](OC(=O)C(C)C)[C@H](C)OC2=O)c1OC(=O)C(Cl)c1ccccc1 (stereo partly drawn) [Compound 649]	< 80	< 80	> 80	< 80	> 80	< 80
COc1ccnc(C(=O)N[C@H]2COC(=O)[C@H](Cc3ccccc3)[C@@H](OC(=O)C(C)C)[C@H](C)OC2=O)c1OC(=O)c1ccc(Cl)cc1Cl [Compound 643]	< 80	< 80	< 80	< 80	> 80	< 80
COc1ccnc(C(=O)NC(Cc2ccc(OCc3ccccc3)cc2)C(=O)O)c1O (stereo not drawn) [Compound 374]	< 80	< 80	< 80	< 80	> 80	< 80
COc1ccnc(C(=O)N[C@H]2COC(=O)[C@H](Cc3ccccc3)[C@@H](OC(=O)C(C)C)[C@H](C)OC2=O)c1OC(=O)Oc1ccccc1 [Compound 697]	< 80	< 80	< 80	< 80	> 80	< 80
COc1ccnc(C(=O)N[C@H]2COC(=O)[C@H](Cc3ccccc3)[C@@H](OC(=O)C(C)C)[C@H](C)OC2=O)c1OC(=O)c1ccc(Cl)c(Cl)c1 [Compound 644]	< 80	< 80	< 80	< 80	> 80	< 80
COc1ccnc(C(=O)NCC(=O)OC2CCCCC2)c1O [Compound 372]	< 80	> 80	< 80	< 80	< 80	< 80
COc1ccnc(C(=O)N[C@H]2COC(=O)[C@H](Cc3ccccc3)[C@@H](OC(=O)C(C)C)[C@H](C)OC2=O)c1OC(=O)c1ccnc(Cl)c1 [Compound 672]	< 80	< 80	< 80	< 80	> 80	< 80
COc1ccnc(C(=O)NC(CC(N)=O)C(=O)OC/C=C(/C)CCC=C(C)C)c1O (stereo not drawn) [Compound 373]	< 80	> 80	< 80	< 80	< 80	< 80
COc1ccnc(C(=O)N[C@H]2COC(=O)[C@H](Cc3ccccc3)[C@@H](OC(=O)C(C)C)[C@H](C)OC2=O)c1OC(=O)c1ccc(OC(Cl)(Cl)Cl)cc1 [Compound 635]	< 80	< 80	< 80	< 80	> 80	< 80
COc1ccnc(C(=O)NCCCCCCCCCCC(=O)OCCSc2ccccc2)c1O [Compound 362]	< 80	< 80	> 80	< 80	< 80	< 80
COc1ccnc(C(=O)NCCCCC(=O)Oc2cccnc2Br)c1O [Compound 366]	> 80	< 80	< 80	< 80	< 80	< 80
COc1ccnc(C(=O)N[C@H]2COC(=O)[C@H](Cc3ccccc3)[C@@H](OC(=O)C(C)C)[C@H](C)OC2=O)c1OC(=O)c1c(-c2c(Cl)cccc2Cl)noc1C [Compound 677]	< 80	< 80	< 80	< 80	> 80	< 80
COc1ccnc(C(=O)N[C@H]2COC(=O)[C@H](Cc3ccccc3)[C@@H](OC(=O)C(C)C)[C@H](C)OC2=O)c1OC(=O)c1cc(Cl)cnc1Cl [Compound 671]	< 80	< 80	< 80	< 80	> 80	< 80
COc1ccnc(C(=O)N[C@H]2COC(=O)[C@H](Cc3ccccc3)[C@@H](OC(=O)C(C)C)[C@H](C)OC2=O)c1OC(=O)c1snnc1C [Compound 676]	< 80	< 80	< 80	< 80	> 80	< 80
COc1ccnc(C(=O)NCCCCCCCCCCCC(=O)OCCSc2ccccc2)c1O [Compound 364]	< 80	< 80	> 80	< 80	< 80	< 80
COc1ccnc(C(=O)NC(C)C(=O)OCCCCCc2ccccc2)c1O (stereo not drawn) [Compound 370]	< 80	< 80	< 80	< 80	> 80	< 80
COc1ccnc(C(=O)NCCCCCCCCCCCC(=O)Oc2cccc(NC(C)=O)c2)c1O [Compound 365]	< 80	< 80	> 80	< 80	< 80	< 80
COc1ccnc(C(=O)N[C@H]2COC(=O)[C@H](Cc3ccccc3)[C@@H](OC(=O)C(C)C)[C@H](C)OC2=O)c1OC(=O)c1ccccc1F [Compound 636]	< 80	< 80	< 80	< 80	> 80	< 80
COc1ccnc(C(=O)NCC(=O)OCCCCCc2ccccc2)c1O [Compound 371]	< 80	> 80	< 80	< 80	< 80	< 80
COc1ccnc(C(=O)NCCCCCCCC(=O)Oc2ccc(C)c(Cl)c2)c1O [Compound 368]	< 80	> 80	< 80	< 80	< 80	< 80
COc1ccnc(C(=O)N[C@H]2COC(=O)[C@H](Cc3ccccc3)[C@@H](OC(=O)C(C)C)[C@H](C)OC2=O)c1OC(=O)c1c(F)c(F)c(F)c(F)c1F [Compound 642]	< 80	< 80	< 80	< 80	> 80	< 80
COc1ccnc(C(=O)N[C@H]2COC(=O)[C@H](Cc3ccccc3)[C@@H](OC(=O)C(C)C)[C@H](C)OC2=O)c1OC(=O)c1ccccc1C [Compound 628]	< 80	< 80	< 80	< 80	> 80	< 80
COc1ccnc(C(=O)N[C@H]2COC(=O)[C@H](Cc3ccccc3)[C@@H](OC(=O)C(C)C)[C@H](C)OC2=O)c1OC(=O)CC(C)C [Compound 606]	< 80	< 80	< 80	< 80	> 80	< 80
COc1ccnc(C(=O)N[C@H]2COC(=O)[C@H](Cc3ccccc3)[C@@H](OC(=O)C(C)C)[C@H](C)OC2=O)c1OC(=O)c1ccc(F)cc1 [Compound 637]	< 80	< 80	< 80	< 80	> 80	< 80
COc1ccnc(C(=O)NCCCCC(=O)Oc2cccc(NC(C)=O)c2)c1O [Compound 367]	< 80	< 80	> 80	< 80	< 80	< 80
